# Test results reported in ChEMBL document CHEMBL1938339, “Tripeptidic BACE1 inhibitors devised by in-silico conformational structure-based design” (Bioorg Med Chem Lett, 2012).
# Target: Beta-secretase 1 (Homo sapiens) (UniProt P56817)
# Test: Inhibition of human recombinant BACE1 at 2 uM by FRET assay
# Chain of Beta-secretase 1 (Homo sapiens) (P56817 whole entry): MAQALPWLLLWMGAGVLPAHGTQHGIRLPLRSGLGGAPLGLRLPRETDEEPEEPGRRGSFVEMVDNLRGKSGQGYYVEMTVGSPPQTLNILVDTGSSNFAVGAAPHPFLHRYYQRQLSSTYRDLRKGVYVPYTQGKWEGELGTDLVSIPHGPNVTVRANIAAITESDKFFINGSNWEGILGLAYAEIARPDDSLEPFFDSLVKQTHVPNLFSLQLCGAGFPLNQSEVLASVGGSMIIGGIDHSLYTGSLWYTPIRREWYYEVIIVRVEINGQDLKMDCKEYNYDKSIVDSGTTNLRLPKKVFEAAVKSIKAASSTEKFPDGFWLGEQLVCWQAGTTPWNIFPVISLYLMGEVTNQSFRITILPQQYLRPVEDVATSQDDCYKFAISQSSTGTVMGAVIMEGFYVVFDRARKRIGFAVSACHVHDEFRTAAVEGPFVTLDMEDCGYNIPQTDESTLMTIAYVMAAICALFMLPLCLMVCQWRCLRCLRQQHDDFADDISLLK
row,Structure (SMILES),inhibition [%]
1,Cc1ccccc1CC(C)(C)NC(=O)[C@H](CC(C)C)NC(=O)[C@@H](NC(=O)[C@@H](N)CNC(=O)c1[nH]c(=O)[nH]c(=O)c1F)C(C)C,91
2,CC(C)C[C@H](NC(=O)[C@@H](NC(=O)[C@@H](N)CNC(=O)c1nn[nH]n1)C(C)C)C(=O)NC(C)(C)Cc1ccccc1,70
3,CC(C)[C@H](NC(=O)[C@@H](N)CNC(=O)c1[nH]c(=O)[nH]c(=O)c1F)C(=O)N[C@@H](CC1CCCCC1)C(=O)NC(C)(C)CC1CCCCC1,88
4,COc1ccc(CC(C)(C)NC(=O)[C@H](CC2CCCCC2)NC(=O)[C@@H](NC(=O)[C@@H](N)CNC(=O)c2[nH]c(=O)[nH]c(=O)c2F)C(C)C)cc1,85
5,CC(C)C[C@H](NC(=O)[C@@H](NC(=O)[C@@H](N)CNC(=O)c1[nH]c(=O)[nH]c(=O)c1F)C(C)C)C(=O)N1CCCCCC1,89
6,CC(C)[C@H](NC(=O)[C@@H](N)CNC(=O)c1cc(O)ccc1O)C(=O)N[C@@H](CC1CCCCC1)C(=O)NC(C)(C)Cc1ccc(Br)cc1,81
7,CC(C)[C@H](NC(=O)[C@@H](N)CCC(=O)O)C(=O)N[C@@H](CC1CCCCC1)C(=O)NC(C)(C)Cc1ccccc1,16
8,CC(C)[C@H](NC(=O)[C@@H](N)CNC(=O)c1[nH]c(=O)[nH]c(=O)c1F)C(=O)N[C@@H](CC1CCCCC1)C(=O)NC(C)(C)Cc1cc(F)cc(F)c1,91
9,COc1cccc(CC(C)(C)NC(=O)[C@H](CC(C)C)NC(=O)[C@@H](NC(=O)[C@@H](N)CNC(=O)c2cc(O)ccc2O)C(C)C)c1,46
10,COc1ccc(CC(C)(C)NC(=O)[C@H](CC(C)C)NC(=O)[C@@H](NC(=O)[C@@H](N)CNC(=O)c2cc(O)ccc2O)C(C)C)cc1,41
11,Cc1ccc(CC(C)(C)NC(=O)[C@H](CC(C)C)NC(=O)[C@@H](NC(=O)[C@@H](N)CNC(=O)c2[nH]c(=O)[nH]c(=O)c2F)C(C)C)cc1,86
12,CC(C)C[C@H](NC(=O)[C@@H](NC(=O)[C@@H](N)CNC(=O)c1[nH]c(=O)[nH]c(=O)c1F)C(C)C)C(=O)NC(C)(C)Cc1cc(F)cc(F)c1,86
13,CC(C)[C@H](NC(=O)[C@@H](N)CNC(=O)c1[nH]c(=O)[nH]c(=O)c1F)C(=O)N[C@@H](CC1CCCCC1)C(=O)NC(C)(C)Cc1ccccc1,92
14,CC(C)C[C@H](NC(=O)[C@@H](NC(=O)[C@@H](N)CNC(=O)c1[nH]c(=O)[nH]c(=O)c1F)C(C)C)C(=O)NC(C)(C)CC1CCCCC1,91
15,Cc1ccccc1CC(C)(C)NC(=O)[C@H](CC1CCCCC1)NC(=O)[C@@H](NC(=O)[C@@H](N)CNC(=O)c1[nH]c(=O)[nH]c(=O)c1F)C(C)C,84
16,CC(C)C[C@H](NC(=O)[C@@H](NC(=O)[C@@H](N)CNC(=O)c1[nH]c(=O)[nH]c(=O)c1F)C(C)C)C(=O)NC(C)(C)Cc1ccc([N+](=O)[O-])cc1,27
17,CC(C)C[C@H](NC(=O)[C@@H](NC(=O)[C@@H](N)CNC(=O)c1cc(O)ccc1O)C(C)C)C(=O)NC(C)(C)Cc1ccc(I)cc1I,78
18,CC(C)[C@H](NC(=O)[C@@H](N)CNC(=O)c1cc(O)ccc1O)C(=O)N[C@@H](CC1CCCCC1)C(=O)NC(C)(C)Cc1ccccc1,80
19,CC(C)[C@H](NC(=O)[C@@H](N)CNC(=O)c1[nH]c(=O)[nH]c(=O)c1F)C(=O)N[C@@H](CC1CCCCC1)C(=O)NC(C)(C)Cc1ccc(I)cc1I,96
20,CC(C)[C@H](NC(=O)[C@@H](N)CNC(=O)c1[nH]c(=O)[nH]c(=O)c1F)C(=O)N[C@@H](CC1CCCCC1)C(=O)NC(C)(C)Cc1ccc(Br)cc1,92
21,CC(C)C[C@H](NC(=O)[C@@H](NC(=O)[C@@H](N)CNC(=O)c1[nH]c(=O)[nH]c(=O)c1F)C(C)C)C(=O)NC(C)(C)Cc1ccc(Br)cc1,85
22,Cc1ccc(CC(C)(C)NC(=O)[C@H](CC(C)C)NC(=O)[C@@H](NC(=O)[C@@H](N)CNC(=O)c2cc(O)ccc2O)C(C)C)cc1,51

row,Structure (SMILES),inhibition [%]
1,COc1cccc(CC(C)(C)NC(=O)[C@H](CC2CCCCC2)NC(=O)[C@@H](NC(=O)[C@@H](N)CNC(=O)c2cc(O)ccc2O)C(C)C)c1,49
2,COc1ccc(CC(C)(C)NC(=O)[C@H](CC2CCCCC2)NC(=O)[C@@H](NC(=O)[C@@H](N)CNC(=O)c2cc(O)ccc2O)C(C)C)cc1,45
3,CC(C)C[C@H](NC(=O)[C@@H](NC(=O)[C@@H](N)CNC(=O)c1[nH]c(=O)[nH]c(=O)c1F)C(C)C)C(=O)N1CCCCC1,91
4,CC(C)[C@H](NC(=O)[C@@H](N)CNC(=O)c1nn[nH]n1)C(=O)N[C@@H](CC1CCCCC1)C(=O)NC(C)(C)Cc1ccccc1,76
5,CC(C)[C@H](NC(=O)[C@@H](N)CNC(=O)c1cc(O)ccc1O)C(=O)N[C@@H](CC1CCCCC1)C(=O)NC(C)(C)Cc1ccc([N+](=O)[O-])cc1,80
6,CC(C)[C@H](NC(=O)[C@@H](N)CNC(=O)c1[nH]c(=O)[nH]c(=O)c1F)C(=O)N[C@@H](CC1CCCCC1)C(=O)NC(C)(C)Cc1ccc([N+](=O)[O-])cc1,89
7,CC(C)C[C@H](NC(=O)[C@@H](NC(=O)[C@@H](N)CNC(=O)c1[nH]c(=O)[nH]c(=O)c1F)C(C)C)C(=O)NC(C)(C)Cc1ccccc1,90
8,COc1cccc(CC(C)(C)NC(=O)[C@H](CC2CCCCC2)NC(=O)[C@@H](NC(=O)[C@@H](N)CNC(=O)c2[nH]c(=O)[nH]c(=O)c2F)C(C)C)c1,77
9,CC(C)C[C@H](NC(=O)[C@@H](NC(=O)[C@@H](N)CCC(=O)O)C(C)C)C(=O)NC(C)(C)Cc1ccccc1,< 10
10,CC(C)C[C@H](NC(=O)[C@@H](NC(=O)[C@@H](N)CNC(=O)c1cc(O)ccc1O)C(C)C)C(=O)NC(C)(C)Cc1ccccc1,77
11,Cc1ccccc1CC(C)(C)NC(=O)[C@H](CC1CCCCC1)NC(=O)[C@@H](NC(=O)[C@@H](N)CNC(=O)c1cc(O)ccc1O)C(C)C,54
12,CC(C)C[C@H](NC(=O)[C@@H](NC(=O)[C@@H](N)CNC(=O)c1[nH]c(=O)[nH]c(=O)c1F)C(C)C)C(=O)NC(C)(C)Cc1ccc(I)cc1I,91
13,CC(C)C[C@H](NC(=O)[C@@H](NC(=O)[C@@H](N)CNC(=O)c1[nH]c(=O)[nH]c(=O)c1F)C(C)C)C(=O)N1CCCCCCCC1,81
14,CC(C)C[C@H](NC(=O)[C@@H](NC(=O)[C@@H](N)CNC(=O)c1[nH]c(=O)[nH]c(=O)c1F)C(C)C)C(=O)N1CCCCCCC1,85
15,COc1cccc(CC(C)(C)NC(=O)[C@H](CC(C)C)NC(=O)[C@@H](NC(=O)[C@@H](N)CNC(=O)c2[nH]c(=O)[nH]c(=O)c2F)C(C)C)c1,84
16,CC(C)C[C@H](NC(=O)[C@@H](NC(=O)[C@@H](N)CNC(=O)c1cc(O)ccc1O)C(C)C)C(=O)NC(C)(C)Cc1ccc([N+](=O)[O-])cc1,45
17,CC(C)[C@H](NC(=O)[C@@H](N)CNC(=O)c1cc(O)ccc1O)C(=O)N[C@@H](CC1CCCCC1)C(=O)NC(C)(C)Cc1ccc(I)cc1I,88
18,CC(C)C[C@H](NC(=O)[C@@H](NC(=O)[C@@H](N)CNC(=O)c1[nH]c(=O)[nH]c(=O)c1F)C(C)C)C(=O)N1CCCC1,88
19,Cc1ccc(CC(C)(C)NC(=O)[C@H](CC2CCCCC2)NC(=O)[C@@H](NC(=O)[C@@H](N)CNC(=O)c2[nH]c(=O)[nH]c(=O)c2F)C(C)C)cc1,88
20,CC(C)C[C@H](NC(=O)[C@@H](NC(=O)[C@@H](N)CNC(=O)c1cc(O)ccc1O)C(C)C)C(=O)NC(C)(C)Cc1cc(F)cc(F)c1,59
21,COc1ccc(CC(C)(C)NC(=O)[C@H](CC(C)C)NC(=O)[C@@H](NC(=O)[C@@H](N)CNC(=O)c2[nH]c(=O)[nH]c(=O)c2F)C(C)C)cc1,83
